According to PMC8406801, “Naringenin Inhibits Platelet Activation and Arterial Thrombosis Through Inhibition of Phosphoinositide 3-Kinase and Cyclic Nucleotide Signaling” (Frontiers in Pharmacology, 2021):
Several values for one entry are separate records, joined by “and”; a condition that tells them apart may be missing. Equal entries are not always repeated. Where two headings read alike, the source gives them in different places.

Assays:
[1] = system: washed rat platelets; assay: ADP (10 μM)-induced aggregation of washed rat platelets; format: cell-based; conditions: H89+Naringenin (200 μM)+ADP (10 μM); Figure 7E
[2] = system: Akt Ser473 phosphorylation; assay: Ex vivo immunoblotting of phospho-Akt (Ser473) in ADP-stimulated PRP of treated rats; design: species or system rat; conditions: for p-Akt Ser473 / t-Akt (Fold to Control) / p-Akt Ser473 / t-Akt (raw data): ex vivo, Figure 8C
Procedure: Male SD rats were randomly divided into 5 groups with 6 rats in each group. […] Sixty minutes after the last sample treatment, blood was drawn from the abdominal aorta of rats into the siliconized vacutainers containing 1:9 (v/v) 3.8% sodium citrate. The collected blood was centrifuged at 100 × g for 10 min at room temperature to obtain PRP. […] The platelet counts of PRP were adjusted to 4×10^8 cells/mL using PPP. PRP was incubated for 5 min at 37°C and then stimulated by ADP (5 μM). The maximum platelet aggregation rate was determined as mentioned above.
For in vitro platelet aggregation, aliquots of washed platelets were preincubated with vehicle or various concentrations of naringenin for 5 min and stimulated with ADP (10 μmol/L) under stirring at 37°C for 5 min. For ex vivo platelet aggregation, PRP was incubated at 37°C for 5 min and stimulated with ADP (5 μmol/L) under stirring at 37 °C. The platelet aggregation was terminated by adding ethylenediaminetetraacetic acid (EDTA; 10 mM). Total protein was prepared using RIPA lysis buffer and protein content was determined by bicinchoninic acid (BCA) protein assay kit. Equal amounts of platelet proteins (30 μg) were separated on 10% SDS polyacrylamide gel electrophoresis (SDS-PAGE) and then transferred to poly vinylidene difluoride (PVDF) membranes and subjected to western blot. Blots were blocked with TBS-Tween 20 containing 5% BSA and probed with primary antibodies diluted in blocking solution at 4°C overnight followed by incubation with the corresponding HRP secondary antibodies. The protein bands were visualized using enhanced chemiluminescence (ECL).
Blood was collected and PRP was obtained after the last treatment. Platelet aggregation was induced by ADP (5 μmol/L) (A). Data are expressed as means ± SD (n = 6). After ADP stimulation, platelet proteins were then extracted and analyzed by immunoblotting using PI3Kp110β antibody (B) and phospho-specific antibodies such as Akt^Ser473 (C), Akt^Thr308 (D) and ERK1/2^Thr202/Tyr204 (E). Total level of GAPDH was measured on each sample as a loading control. The blots shown are representative of three separate experiments. The relative protein expression levels were quantified by ImageJ 1.47v software. The level of relative protein expression obtained with vehicle control was taken as 1. R represents the level of relative protein expression in resting platelets. Data are expressed as means ± SD (n = 3). *p < 0.05, **p < 0.01, ***p < 0.001 compared with the vehicle control group (Con).
To further investigate the antiplatelet mechanisms of naringenin ex vivo, several signaling molecules such as PI3Kp110β, Akt and ERK were detected. After oral administration of naringenin (200, 400, and 800 mg/kg) to rats for 7 days, rat PRP was prepared and stimulated by ADP (5 μmol/L), and platelets were lysed to determine protein phosphorylation levels using western blot.

[3] = Cytotoxicity: LDH leakage from platelets; format: cell-based; conditions: rat
Procedure: To assess the potential cytotoxicity of naringenin, lactate dehydrogenase (LDH) leakage from platelets were determined. Washed platelets were preincubated with either various concentrations of naringenin or vehicle at 37°C for 5 min and then centrifuged at 350 × g for 3 min at room temperature. The supernatant was detected by LDH assay kit (Beyotime Biotechnology, Shanghai, China). LDH leakage was expressed as percentages of the total LDH leakage in platelets completely lysed with 0.1% Triton X-100.

[4] = system: washed rat platelets; assay: Thrombin (0.2 U/mL)-induced aggregation of washed platelets; format: cell-based; conditions: for Aggregation (%) / Aggregation % of control: washed platelets, single replicates; for Aggregation (%): raw data
Procedure: Washed rat platelets were prepared as described previously ([Gao et al., 2011]) with a minor modification. Briefly, rat blood was drawn from the abdominal aorta into the siliconized vacutainers containing 1:9 (v/v) 3.8% sodium citrate, supplemented with 100 ng/ml prostaglandin E1 (PGE1) and centrifuged at 300 × g for 6 min at room temperature. Platelet-rich plasma (PRP) was obtained, and after the addition of 100 ng/ml PGE1, platelets were pelleted at 900 × g for 10 min. Platelets were washed once in Tyrode’s buffer (12 mM NaHCO3, 138 mM NaCl, 5.5 mM glucose, 2.9 mM KCl, 2 mM MgCl2, 0.42 mM NaH2PO4, 10 mM HEPES, pH 7.4) containing 100 ng/ml PGE1, and finally resuspended in Tyrode’s buffer containing 0.02 U/mL apyrase to a final concentration of 4×10^8 cells/mL. Washed platelets were preincubated with vehicle (0.4% dimethyl sulfoxide) or various concentrations of naringenin in the presence of 2 mM CaCl2 for 5 min at 37°C, and then further stimulated by ADP (10 μM), thrombin (0.2 U/mL) or collagen (2 μg/ml). The maximum platelet aggregation rate was detected within 5 min with continuous stirring.
FIGURE 1 Effects of naringenin and naringin on platelet aggregation. Chemical structure of naringin (A) and naringenin (B). The effects of naringin (C) or naringenin (D) on PRP were measured following stimulation with 10 μmol/L ADP. Rat washed platelet aggregation performed with or without different concentrations of naringin (E) or naringenin (F) was recorded after stimulation with 10 μmol/L ADP. Similarly, Washed platelet aggregation performed with vehicle or various concentrations of naringenin was recorded after stimulation with 0.2 U/mL thrombin (G) or 2 μg/ml collagen (H). WP represents washed platelets. Data are expressed as means ± SD (n = 6), the level of aggregation obtained at 5 min with vehicle-treated samples (0 μM) was taken as 100%. *p < 0.05, **p < 0.01, ***p < 0.001 compared with the vehicle control group.

[5] = system: integrin αIIbβ3 inside-out signaling (fibrinogen binding) in washed platelets; assay: ADP-stimulated fibrinogen binding (flow cytometry); format: cell-based, rat; conditions: ADP 10 μM; for Fibrinogen binding (%): single replicates; for fibrinogen binding: mean ± SD, n = 3, 55.67 ± 9.62% with ADP alone
Procedure: Flow cytometric assays were performed as described previously ([Wang et al., 2019]). ADP-stimulated P-selectin exposure and fibrinogen binding were determined in washed platelets. […] The platelets were immediately incubated with PE-labeled CD62P or FITC-labeled fibrinogen in the dark at room temperature for 15 min. The cells were finally fixed with 1% (v/v) paraformaldehyde prior to analysis using an Accuri C6 flow cytometer (BD Biosciences, United States).

O=C1C[C@@H](c2ccc(O)cc2)Oc2cc(O)cc(O)c21 [Naringenin]
Aggregation (%) [1]: 25.0% and 17.3% and 32.6% and 33.0% and 28.0% and 21.0%
p-Akt Ser473 / t-Akt (Fold to Control) ([2]; naringenin 200mg/kg): 0.3581 and 0.2265 and 0.3338
p-Akt Ser473 / t-Akt (raw data) ([2]; naringenin 200mg/kg): 0.3980 and 0.2517 and 0.3710
p-Akt Ser473 / t-Akt (Fold to Control) ([2]; naringenin 400mg/kg): 0.1353 and 0.0873 and 0.1300
p-Akt Ser473 / t-Akt (raw data) ([2]; naringenin 400mg/kg): 0.1504 and 0.0970 and 0.1445
p-Akt Ser473 / t-Akt (Fold to Control) ([2]; naringenin 800mg/kg): 0.1415 and 0.0868 and 0.1240
p-Akt Ser473 / t-Akt (raw data) ([2]; naringenin 800mg/kg): 0.1573 and 0.0965 and 0.1378
phosphorylation of Akt at Ser473 in rat PRP ex vivo ([2]; rats, oral 200, 400, and 800 mg/kg for 7 days, ADP 5 μmol/L): significantly suppressed
cytotoxicity at 5 min, 100 µM ([3]; Cytotoxicity (%)): 0.99 ± 0.21%
cytotoxicity at 5 min, 200 µM ([3]; Cytotoxicity (%)): 1.16 ± 0.39%
cytotoxicity at 5 min, 400 μM ([3]; Cytotoxicity (%)): 2.11 ± 0.81%
cytotoxicity at 5 min, 800 μM ([3]; Cytotoxicity (%)): 2.5 ± 0.85%
cytotoxicity at 5 min, 400 μM ([3]; washed platelets, naringenin 400 μM, LDH leakage, Table 1, read-out: Cytotoxicity (%)): 1.94%
cytotoxicity at 5 min, 800 μM ([3]; washed platelets, naringenin 800 μM, LDH leakage, Table 1, read-out: Cytotoxicity (%)): 1.94%
IC50 [4]: ~684 µM
IC50 ([4]; Rattus norvegicus, Platelet): 684 ± 80.8 µM
Aggregation (%) ([4]; 100 μM): 77.1% and 76.2% and 52.9% and 66.7% and 72.2% and 88.4%
Aggregation % of control ([4]; 100 μM): 95.0 % of control and 93.9 % of control and 65.2 % of control and 82.2 % of control and 88.9 % of control and 108.9 % of control
Aggregation (%) ([4]; 200 μM): 79.6% and 67.1% and 56.9% and 52.0% and 48.0% and 62.4%
Aggregation % of control ([4]; 200 μM): 98.1 % of control and 82.7 % of control and 70.1 % of control and 64.1 % of control and 59.1 % of control and 76.9 % of control
Aggregation (%) ([4]; 400 μM): 77.0% and 53.3% and 68.0% and 42.9% and 66.7% and 43.5%
Aggregation % of control ([4]; 400 μM): 94.9 % of control and 65.7 % of control and 83.8 % of control and 52.9 % of control and 82.2 % of control and 53.6 % of control
Aggregation (%) ([4]; 800 μM): 45.5% and 30.8% and 28.0% and 42.4% and 22.5% and 36.0%
Aggregation % of control ([4]; 800 μM): 56.1 % of control and 37.9 % of control and 34.5 % of control and 52.2 % of control and 27.7 % of control and 44.4 % of control
Fibrinogen binding (%) ([5]; 200 μM): 42.78% and 35.40% and 54.20%
fibrinogen binding ([5]; 400 μM): 31.74 ± 5.85%
Fibrinogen binding (%) ([5]; 400 μM): 31.71% and 25.90% and 37.60%
fibrinogen binding ([5]; 800 μM): 20.48 ± 4.63%
Fibrinogen binding (%) ([5]; 800 μM): 21.04% and 15.60% and 24.80%
